Literature values, collected in article PMC4303313 (Biochemistry, 2014).

Legend:
reduced RNase = molecular target: T1, reduced RNase (Bos taurus, UniProt P61823)
T1 sequence (P61823 27-150): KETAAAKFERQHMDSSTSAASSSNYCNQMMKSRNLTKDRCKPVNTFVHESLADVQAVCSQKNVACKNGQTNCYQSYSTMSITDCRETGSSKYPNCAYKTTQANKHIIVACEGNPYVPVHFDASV

reduced RfBP = molecular target: T2, reduced RfBP (Gallus gallus, UniProt P02752); conditions: no GSH
T2 sequence (P02752 18-238): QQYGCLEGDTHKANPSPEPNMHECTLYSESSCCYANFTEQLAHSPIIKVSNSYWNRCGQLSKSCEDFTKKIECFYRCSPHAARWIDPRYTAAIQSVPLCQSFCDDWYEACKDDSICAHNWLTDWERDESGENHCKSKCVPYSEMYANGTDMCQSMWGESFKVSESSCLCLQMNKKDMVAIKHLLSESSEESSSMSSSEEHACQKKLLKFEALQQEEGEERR

In the case of `C[As](O)O` [MMA], the “formation of filamentous deposits from reduced RNase” value (reduced RNase; no GSH) is given as “led to the formation of filamentous deposits”, the “formation of aggregates from reduced RNase” value (reduced RNase; reduced RNase and GSH) is given as “do not appear” and the “effect on ability of reoxidized RfBP to rebind riboflavin” value (reduced RfBP) is given as “profoundly attenuated”.
